Source: patent US12138294B2, “Transgenic corn with antifungal peptide AGM182 (DN:0113.18)” (GENVOR, INC., priority 2018, dated 2024)
Entries after “also recorded” stand apart in the source; their conditions may differ. Bridge positions count the residues as written; N and C are the ends. Peptide text beside a SMILES is read from it.

Legend:
[1] = test system: pre-germinated conidia of A. flavus; conditions: read-out: IC50 against A. flavus; in vitro; pre-germinated conidia of A. flavus 70-GFP treated 60 min with 0-25 μM peptide; colonies counted after 24 h at 30° C.
porcine blood cells = experiment: Hemolysis of porcine blood cells
[2] = test system: maize (Zea mays L. Hi-II); experiment: Phenotype of transgenic maize plants expressing AGM182; conditions: transgenic maize plants vs. isogenic negative or non-transformed control

Compound	IC50 [1]	hemolysis of porcine blood cells (porcine blood cells; all concentrations of AGM182)	effect of transgenic expression on plant phenotype and seed weight [2]	hemolysis of porcine blood cells (porcine blood cells; 0.1% Triton-X, positive control)
CC[C@H](C)[C@H](NC(=O)[C@@H]1CSSC[C@H](NC(=O)[C@H](CC(C)C)NC(=O)[C@H](CCCNC(=N)N)NC(=O)[C@H](C)NC(=O)[C@H](CCCCN)NC(=O)[C@@H](NC(=O)[C@@H](N)CCCCN)[C@@H](C)CC)C(=O)N[C@@H](CC(C)C)C(=O)NCC(=O)N[C@@H](CCCCN)C(=O)N[C@@H](Cc2ccccc2)C(=O)N1)C(=O)N[C@@H](CCCCN)C(=O)N[C@@H](C)C(=O)N[C@@H](CCCNC(=N)N)C(=O)N[C@@H](CC(C)C)C(=O)N[C@@H](CCCCN)C(=O)O [AGM182] (H-KIKARLCLGKFCIKARLK-OH; disulfide 7-12)	2.5 µM	No hemolysis; also recorded: absence of hemolytic activity	did not exhibit any overt phenotype; also recorded: did not have any negative effect on plant phenotype and seed weight	
CC[C@H](C)[C@@H]1NC(=O)CNC(=O)[C@H](CCCNC(=N)N)NC(=O)[C@H](Cc2ccc(O)cc2)NC(=O)[C@@H]2CSSC[C@H](NC1=O)C(=O)N[C@@H](Cc1ccc(O)cc1)C(=O)N[C@@H](CCCNC(=N)N)C(=O)N[C@@H](CCCNC(=N)N)C(=O)N[C@H](C(=O)N[C@@H](CCCNC(=N)N)C(N)=O)CSSC[C@H](NC(=O)[C@H](Cc1c[nH]c3ccccc13)NC(=O)[C@@H](N)CCCCN)C(=O)N[C@@H](Cc1ccccc1)C(=O)N[C@@H](CCCNC(=N)N)C(=O)N[C@@H](C(C)C)C(=O)N2 [tachyplesin1, reference compound] (H-KWCFRVCYRGICYRRCR-NH2; disulfide 3-16, 7-12)	12.5 µM			
Triton-X [reference compound]				100%
